One assay concerns the target IRAK4 (Homo sapiens (Human), UniProt Q9NWZ3). In words: IRAK4 Inhibition Assay. As to conditions: ATP 500 μM; IRAK4 0.6 nM; read-out: IRAK4 IC50. In kind it is biochemical. The gist of the method: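 Mobility-shift readout: fluorescent substrate and phosphoproduct resolved electrophoretically on Caliper LabChip 3000 after EDTA quench (35 mM). Enzyme reaction of IRAK4, substrates and test compound ran 60 min at room temperature.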

For assay [1], the system named is TLR2 induced IL-6 in peripheral blood mononuclear cells (PBMCs). In words: PBMC TLR2 Induced IL-6 Assay. The format is cell-based, human. As to conditions: human PBMCs, lipoteichoic acid stimulated, IL-6 by ELISA; for IC50: read-out: Cell IC50; for EC50: read-out: Cell EC50. The gist of the method: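 Lipoteichoic acid at 10 µg/ml served as TLR2 stimulus for 5 hours, following a 30-minute compound pretreatment at 37° C. Cells were Ficoll-isolated human PBMCs, 250000 cells/well, cultured in RPMI plus 10% heat-inactivated FCS.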

Like-named read-outs stand apart in the source and are kept apart here.

Drawing on patent publication US9169252B2 (BRISTOL-MYERS SQUIBB COMPANY, priority 2014, dated 2015), this text covers IC50 and EC50 for 30 molecules.

IRAK4, sequence (Q9NWZ3 whole entry, species assumed): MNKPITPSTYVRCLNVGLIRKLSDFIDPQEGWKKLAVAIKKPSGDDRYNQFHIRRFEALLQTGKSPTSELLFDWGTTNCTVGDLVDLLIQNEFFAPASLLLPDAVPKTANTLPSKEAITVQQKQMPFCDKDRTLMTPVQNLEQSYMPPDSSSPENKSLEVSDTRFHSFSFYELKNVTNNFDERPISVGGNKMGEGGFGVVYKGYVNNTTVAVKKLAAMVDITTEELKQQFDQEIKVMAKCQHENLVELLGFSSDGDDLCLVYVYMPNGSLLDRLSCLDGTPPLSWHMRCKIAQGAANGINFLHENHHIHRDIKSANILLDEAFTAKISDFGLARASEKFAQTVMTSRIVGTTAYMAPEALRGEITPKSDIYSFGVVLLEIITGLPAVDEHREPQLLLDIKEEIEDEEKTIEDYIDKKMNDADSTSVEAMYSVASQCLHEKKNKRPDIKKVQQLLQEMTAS

In the case of `CC(C)(F)CCNc1cc(-n2ncc3cc(C#N)c(N)nc32)ncc1C(=O)NC[C@@H](F)C(C)(C)O` [Example 599], the IC50 at IRAK4 is 4.8 nM; in assay [1] (Homo sapiens, PBMC), 275 nM.

For the molecule `CC(C)(F)CCNc1cc(-n2ncc3cc(C#N)cnc32)ncc1C(=O)NC[C@@H](F)C(C)(C)O` [Example 600], the IC50 on IRAK4 turned out to be 5.3 nM; in assay [1] (Homo sapiens, PBMC) it was 477 nM.

`CC(C)(CNc1cc(-n2ncc3cc(C#N)cnc32)ncc1C(=O)NC[C@@H](F)C(C)(C)O)OC(F)F` [Example 601]: the IC50 at IRAK4 stood at 14.2 nM; in assay [1] (Homo sapiens, PBMC), 490 nM.

Consider `CC[C@@H](F)CNc1cc(-n2ncc3cc(Cl)cnc32)ncc1C(=O)NC[C@@H](F)C(C)(C)O` [Example 602], for which the IC50 at IRAK4 worked out at 9.3 nM; in assay [1] (Homo sapiens, PBMC), 233 nM.

On to `CC(C)(CNc1cc(-n2ncc3cc(Cl)cnc32)ncc1C(=O)NC[C@@H](F)C(C)(C)O)OC(F)F` [Example 603], for which the IC50 on IRAK4 turned out to be 6.7 nM; in assay [1] (Homo sapiens, PBMC), 321 nM.

Regarding `CC(C)(O)[C@H](F)CNC(=O)c1cnc(-n2ncc3cc(C#N)cnc32)cc1NCC1CC1` [Example 605], the IC50 at IRAK4 was found to be 7.5 nM; in assay [1] (Homo sapiens, PBMC), 165 nM.

Turning to `CC(C)(O)[C@H](F)CNC(=O)c1cnc(-n2ncc3cc(C#N)cnc32)cc1N[C@H]1CC[C@H](C(C)(C)O)CC1` [Example 606, 6-(5-Cyano-1H-pyrazolo[3,4-b]pyridin-1-yl)-N—((R)-2-fluoro-3-hydroxy-3-methylbutyl)-4-(((1r,4R)-4-(2-hydroxypropan-2-yl)cyclohexyl)amino)nicotinamide], the IC50 at IRAK4 is 4 nM. In addition, the EC50 in assay [1] (Homo sapiens, PBMC) stood at 127 nM.

In the case of `CC(C)(O)[C@H](F)CNC(=O)c1cnc(-n2ncc3cc(C#N)cnc32)cc1N[C@H]1CC[C@@](C)(O)CC1` [Example 607], the IC50 on IRAK4 is 4 nM. For the same molecule, in assay [1] (Homo sapiens, PBMC), the EC50 came to 332 nM.

Consider `CC(C)(O)[C@H](F)CNC(=O)c1cnc(-n2ncc3cc(C#N)cnc32)cc1N[C@H]1CC[C@](C)(O)CC1` [Example 608], for which the half-maximal inhibitory concentration (IC50) on IRAK4 came to 12.6 nM. The EC50 in assay [1] (Homo sapiens, PBMC) is 318 nM.

Take `CC(C)(O)[C@H]1CCC[C@@H](Nc2cc(-n3ncc4cc(C#N)cnc43)ncc2C(=O)NC[C@@H](F)C(C)(C)O)C1` [Example 612]: the IC50 on IRAK4 was found to be 5.6 nM; in assay [1] (Homo sapiens, PBMC), 262 nM. Moreover, the EC50 in assay [1] (Homo sapiens, PBMC) turned out to be 163 nM.

With `CC(C)(O)[C@H](F)CNC(=O)c1cnc(-n2ncc3cc(C#N)cnc32)cc1NC12CCC(O)(CC1)C2` [Example 613], the IC50 on IRAK4 was 2.8 nM. Also, in assay [1] (Homo sapiens, PBMC), the EC50 came out at 157 nM and the IC50 was determined as 130 nM.

`CC(C)(O)[C@H](F)CNC(=O)c1cnc(N2CCc3cc(C#N)cnc32)cc1NC1CC1` [Example 616]: on IRAK4, the IC50 came out at 10.9 nM. In assay [1] (Homo sapiens, PBMC), the EC50 is 305 nM and the half-maximal inhibitory concentration (IC50) came out at 425 nM.

As to `CC(C)(O)[C@H]1CC[C@H](Nc2cc(-n3ncc4cc(C#N)cnc43)ncc2C(=O)NC[C@@H](F)C(C)(C)O)C1` [Example 617], the IC50 at IRAK4 is 2.8 nM; in assay [1] (Homo sapiens, PBMC), 485 nM.

In the case of `CC(C)(O)[C@H](F)CNC(=O)c1cnc(-n2ncc3cc(F)cnc32)cc1NC1CCC(F)C1` (stereo partly drawn) [Example 620], on IRAK4, the IC50 stood at 3.4 nM. Further, the 50% effective concentration (EC50) in assay [1] amounted to 114 nM.

For the molecule `CC(C)(O)[C@H](F)CNC(=O)c1cnc(-n2ncc3cc(F)cnc32)cc1NC1CCC(F)C1` (stereo partly drawn) [Example 621], the IC50 at IRAK4 is 4 nM. Moreover, in assay [1], the EC50 stood at 139 nM.

Turning to `CC(C)(O)[C@H](F)CNC(=O)c1cnc(-n2ncc3cc(C#N)cnc32)cc1N[C@H]1CC[C@H](NC2COC2)CC1` [Example 622], the IC50 on IRAK4 was found to be 5.2 nM; in assay [1] (Homo sapiens, PBMC), 132 nM.

As to `CC(C)(O)[C@H](F)CNC(=O)c1cnc(-n2ncc3cc(C#N)cnc32)cc1N[C@H]1CC[C@H](NC(=O)C2CC2)CC1` [Example 623], the IC50 on IRAK4 turned out to be 5.2 nM; in assay [1] (Homo sapiens, PBMC), 484 nM.

As for `CC(C)(O)[C@H](F)CNC(=O)c1cnc(-n2ncc3cc(C#N)cnc32)cc1NC12CC3CC(CC(O)(C3)C1)C2` [Example 624], the IC50 was determined as 2.1 nM on IRAK4 and 68 nM in assay [1] (Homo sapiens, PBMC).

For the molecule `CC(C)(O)[C@H]1CC[C@H](Nc2cc(-n3ncc4cc(Cl)cnc43)ncc2C(=O)NC[C@@H](F)C(C)(C)O)C1` [Example 628], the IC50 on IRAK4 worked out at 3.3 nM; in assay [1] (Homo sapiens, PBMC), 148 nM.

Turning to `CNC(=O)[C@H]1CC[C@H](NC(=O)c2cnc(-n3ncc4cc(C#N)c(N)nc43)cc2N[C@@H]2CCCC[C@H]2F)CC1` [Example 629], the IC50 is 3.3 nM on IRAK4 and 135 nM in assay [1] (Homo sapiens, PBMC).

In the case of `CNC(=O)[C@H]1CC[C@H](NC(=O)c2cnc(-n3ncc4cc(C#N)c(N)nc43)cc2N[C@H]2CCCC[C@@H]2F)CC1` [Example 630], the 50% inhibitory concentration (IC50) on IRAK4 was found to be 2.2 nM; in assay [1] (Homo sapiens, PBMC) it was 30 nM.

With `CC(C)(O)[C@H](F)CNC(=O)c1cnc(-n2ncc3cc(C#N)c(N)nc32)cc1NC1CC1` [Example 631], the 50% inhibitory concentration (IC50) at IRAK4 is 3.4 nM; in assay [1] (Homo sapiens, PBMC) it was 66 nM.

As to `CC(C)(O)[C@H](F)CNC(=O)c1cnc(-n2ncc3cc(C#N)c(N)nc32)cc1NC12CC3CC(CC(O)(C3)C1)C2` [Example 632], the 50% inhibitory concentration (IC50) on IRAK4 worked out at 2.6 nM; in assay [1] (Homo sapiens, PBMC), 149 nM.

Take `CC(C)(O)[C@H](F)CNC(=O)c1cnc(-n2ncc3cc(C#N)cnc32)cc1N[C@H]1CC[C@H](NC(=O)C(F)F)CC1` [Example 633]: the IC50 on IRAK4 was 3.3 nM; in assay [1] (Homo sapiens, PBMC) it was 257 nM.

Regarding `CC(C)(O)[C@H](F)CNC(=O)c1cnc(-n2ncc3cc(C#N)cnc32)cc1N[C@H]1CC[C@H](NC(=O)c2ccccc2F)CC1` [Example 634], the IC50 turned out to be 3.9 nM on IRAK4 and 277 nM in assay [1] (Homo sapiens, PBMC).

In the case of `CC(C)(O)[C@H](F)CNC(=O)c1cnc(-n2ncc3cc(C#N)cnc32)cc1NC12CC(C1)C2` [Example 635], the IC50 at IRAK4 is 1.8 nM; in assay [1] (Homo sapiens, PBMC), 375 nM.

Turning to `CC(C)(F)[C@H](F)CNC(=O)c1cnc(-n2ncc3cc(C#N)cnc32)cc1NC12CC3CC(CC(O)(C3)C1)C2` [Example 636], the IC50 is 3 nM at IRAK4 and 293 nM in assay [1] (Homo sapiens, PBMC).

For `CC(C)(O)[C@H](F)CNC(=O)c1cnc(-n2ncc3cc(C#N)c(N)nc32)cc1NC12CC(C1)C2` [Example 637], the half-maximal inhibitory concentration (IC50) on IRAK4 came out at 1.5 nM; in assay [1] (Homo sapiens, PBMC), 165 nM.

In the case of `CC(C)NC(=O)[C@H]1CC[C@H](Nc2cc(-n3ncc4cc(C#N)cnc43)ncc2C(=O)NC[C@@H](F)C(C)(C)O)CC1` [Example 641], the IC50 is 6.4 nM on IRAK4 and 718 nM in assay [1] (Homo sapiens, PBMC).

For `CC(C)(O)[C@H](F)CNC(=O)c1cnc(-n2ncc3cc(C#N)cnc32)cc1NC1CC(F)(F)C1` [Example 644], the IC50 on IRAK4 worked out at 4.3 nM; in assay [1] (Homo sapiens, PBMC), 89 nM.
